Measurements taken from patent publication US4668669A, “Pristinamycin IIB derivatives and compositions containing them” (Rhone-Poulenc Sante, priority 1985, dated 1987).
Starred links: 1 amine or outer side, 2 acyl side, 3 side chain; linkers in the order of their positions; H or OH if unused. Positions of bridges follow the written chain, without caps; N, C: chain ends. Non-standard residues stand in square brackets, D forms with d. Residues, ends and D or L forms follow the SMILES beside them. ξ: configuration not given here. *: point of attachment. X6 = CC(CN1CCN(C)CC1)SC=C1CN([*:1])C(C(=O)[*:2])CC1=O; X4 = CN(C)CC(CN(C)C)SCC1CN([*:1])C(C(=O)[*:2])CC1=O; X5 = CN1CCN(CCCSCC2CN([*:1])C(C(=O)[*:2])CC2=O)CC1; X2 = CN1CCC(SCC2CN([*:1])C(C(=O)[*:2])CC2=O)CC1; ξNMePhe(4-NMe2) = CNC(Cc1ccc(N(C)C)cc1)C(=O)O; X1 = CN(C)CCOC=C1CN([*:1])C(C(=O)[*:2])CC1=O; X3 = CN(C)CCNC=C1CN([*:1])C(C(=O)[*:2])CC1=O; X7 = CN(C)CCCSCC1CN([*:1])C(C(=O)[*:2])CC1=O; Picolinoyl(3-OH) = O=C(c1ncccc1O)*; NMeF = CN[CH](Cc1ccccc1)C(=O)O; Phg = N[CH](C(=O)O)c1ccccc1; Abu = CC[CH](N)C(=O)O

Experiment: Solubility in water (aqueous solution obtained)
Assay type: physicochemical
Settings: distilled water, no hydrochloride stated

Compared with “5γ-[N-(carboxymethyl)methylamino]-5γ-deoxypristinamycin IA [product K]”, CCC1NC(=O)C(NC(=O)c2ncccc2O)C(C)OC(=O)C(c2ccccc2)NC(=O)C2CC(=O)C(=CNCCN(C)C)CN2C(=O)C(Cc2ccc(N(C)C)cc2)N(C)C(=O)C2CCCN2C1=O (centres unmarked) [product AG, 5δ-(2-dimethylaminoethyl)aminomethylenepristinamycin IA] ({Picolinoyl(3-OH)}-T[Abu]P[ξNMePhe(4-NMe2)][X3][Phg]; ester 1-C; configuration not given here) is lower in “Solubility: concentration of aqueous solution” value: 2% for the first, 1% for the second.

Experiment: Solubility in water (aqueous solution obtained)
Assay type: physicochemical
Settings: hydrochloride / dissolved with aqueous hydrochloric acid and distilled water
Text: In the examples described below, unless stated otherwise, all the products can be dissolved at a strength of at least 2%, in the form of hydrochloride.

“5γ-Deoxy-5γ-(2-dimethylaminoethyl)aminopristinamycin IA [compound 2]” and “5γ-deoxy-5γ-(4-diethylamino-2-methylbutyl)aminopristinamycin IA [product F]” are the same in “Solubility: concentration of aqueous solution, in the form of hydrochloride” value (“Solubility: concentration … of hydrochloride” for short): 10% for the first, 10% for the second.

“5γ-deoxy-5γ-[N-(2-dimethylaminoethyl)-N-methylamino]pristinamy cin IA [product D]” and “5γ-deoxy-5γ-[N-(2-dimethylaminoethyl)acetamido]pristinamycin IA [product L]” are the same in “Solubility: concentration … of hydrochloride” value: 10% for the first, 10% for the second.

Compared with “5γ-deoxy-5γ-[N-(3-dimethylaminopropyl)acetamido]pristinamycin IA [product M]”, “5γ-deoxy-5γ-dimethylaminopristinamycin IA [product B]” is lower in “Solubility: concentration … of hydrochloride” value: 10% for the first, 2% for the second.

Going from “5γ-deoxy-5γ-methylaminopristinamycin IA [Reference Example 9]” to “5γ-deoxy-(3-dimethylaminopropyl)-5γ-amino-pristinamycin IA [product A]”, the “Solubility: concentration … of hydrochloride” value rises from 1% to 10%.

First: 5δ-(1-methyl-4-piperidyl)aminomethylenepristinamycin IA [product AT]
Second: 5δ-(2-diethylaminoethyl)thiomethylpristinamycin IA [product AF1]
The “Solubility: concentration … of hydrochloride” value of the first is higher: 10% for the first, 5% for the second.

Going from “5δ-(2-dimethylaminoethyl)thiomethylenepristinamycin IA [product AX]” to “5δ-(3-dimethylamino-2-propyl)thiomethylenepristinamycin IA [Reference Example 57]”, the “Solubility: concentration … of hydrochloride” value rises from 1% to 5%.

“5δ-(3-dimethylaminopropyl)thiomethylpristinamycin IA [product AA]” and “5δ-(5-diethylamino-2-pentyl)thiomethylenepristinamycin IA [Reference Example 58]” are the same in “Solubility: concentration … of hydrochloride” value: 10% for the first, 10% for the second.

“5δ-[2-(4-methyl-1-piperazinyl)ethyl]thiomethylpristinamycin IA [product AC]” and “26-(2-Diisopropylaminoethyl)sulphonylpristinamycin IIB [Example 25]” are the same in “Solubility: concentration … of hydrochloride” value: 5% for the first, 5% for the second.

Going from CC1=CC(O)CC(=O)Cc2nc(co2)C(=O)N2CCC([S+]([O-])CCN(C)C)C2C(=O)OC(C(C)C)C(C)C=CC(=O)NCC=C1 (centres unmarked) [Example 4, 26-(2-dimethylaminoethyl)sulphinylpristinamycin IIB] to CCN(C)CC[S+]([O-])C1CCN2C(=O)c3coc(n3)CC(=O)CC(O)C=C(C)C=CCNC(=O)C=CC(C)C(C(C)C)OC(=O)C12 (centres unmarked) [Example 5, 2-(N-methyl-N-ethyl-2-aminoethyl)sulphinylpristinamycin IIB], the “Solubility: concentration … of hydrochloride” value rises from 3.7% to 10%.

Going from CC1=CC(O)CC(=O)Cc2nc(co2)C(=O)N2CCC([S+]([O-])CCCN(C)C)C2C(=O)OC(C(C)C)C(C)C=CC(=O)NCC=C1 (centres unmarked) [Example 6, 26-(3-dimethylaminopropyl)sulphinylpristinamycin IIB] to CC1=CC(O)CC(=O)Cc2nc(co2)C(=O)N2CCC([S+]([O-])CC(Cc3ccccc3)N(C)C)C2C(=O)OC(C(C)C)C(C)C=CC(=O)NCC=C1 [Example 11, 26-[(2S)-2-dimethylamino-3-phenylpropyl]sulphinylpristinamycin IIB], the “Solubility: concentration … of hydrochloride” value falls from 2% to 1%.

Compared with CCCCCCCCCCNCC[S+]([O-])C1CCN2C(=O)c3coc(n3)CC(=O)CC(O)C=C(C)C=CCNC(=O)C=CC(C)C(C(C)C)OC(=O)C12 (centres unmarked) [Example 18, 26-(2-decylaminoethyl)sulphinylpristinamycin IIB], CCC1NC(=O)C(NC(=O)c2ncccc2O)C(C)OC(=O)C(c2ccccc2)NC(=O)C2CC(=O)C(=CSC(C)CN3CCN(C)CC3)CN2C(=O)C(Cc2ccc(N(C)C)cc2)N(C)C(=O)C2CCCN2C1=O (centres unmarked) [product AAN, 5δ-[3-(4-methyl-1-piperazinyl)-2-propyl]thiomethylenepristinamycin IA] ({Picolinoyl(3-OH)}-T[Abu]P[ξNMePhe(4-NMe2)][X6][Phg]; ester 1-C; configuration not given here) is higher in “Solubility: concentration … of hydrochloride” value: 1% for the first, 10% for the second.

First: CCC1NC(=O)C(NC(=O)c2ncccc2O)C(C)OC(=O)C(c2ccccc2)NC(=O)C2CC(=O)C(=COCCN(C)C)CN2C(=O)C(Cc2ccc(N(C)C)cc2)N(C)C(=O)C2CCCN2C1=O (centres unmarked) [product AAQ, 5δ-(2-dimethylaminoethoxymethylene)pristinamycin IA] ({Picolinoyl(3-OH)}-T[Abu]P[ξNMePhe(4-NMe2)][X1][Phg]; ester 1-C; configuration not given here)
Second: CCC1NC(=O)C(NC(=O)c2ncccc2O)C(C)OC(=O)C(c2ccccc2)NC(=O)C2CC(=O)C(CSCCCN(C)C)CN2C(=O)C(Cc2ccccc2)N(C)C(=O)C2CCCN2C1=O (centres unmarked) [product AB, 5δ-(3-dimethylaminopropyl)thiomethylvirginiamycin S] ({Picolinoyl(3-OH)}-T[Abu]P[NMeF][X7][Phg]; ester 1-C; configuration not given here)
The “Solubility: concentration … of hydrochloride” value of the first is lower: 1% for the first, 10% for the second.

Compared with CCC1NC(=O)C(NC(=O)c2ncccc2O)C(C)OC(=O)C(c2ccccc2)NC(=O)C2CC(=O)C(CSCCCN3CCN(C)CC3)CN2C(=O)C(Cc2ccc(N(C)C)cc2)N(C)C(=O)C2CCCN2C1=O (centres unmarked) [product AD, 5δ-[3-(4-methyl-1-piperazinyl)propyl]thiomethylpristinamycin IA] ({Picolinoyl(3-OH)}-T[Abu]P[ξNMePhe(4-NMe2)][X5][Phg]; ester 1-C; configuration not given here), CCC1NC(=O)C(NC(=O)c2ncccc2O)C(C)OC(=O)C(c2ccccc2)NC(=O)C2CC(=O)C(CSC(CN(C)C)CN(C)C)CN2C(=O)C(Cc2ccc(N(C)C)cc2)N(C)C(=O)C2CCCN2C1=O (centres unmarked) [product AE, 5δ-[1,3-bis(dimethylamino)-2-propyl]thiomethylpristinamycin IA] ({Picolinoyl(3-OH)}-T[Abu]P[ξNMePhe(4-NMe2)][X4][Phg]; ester 1-C; configuration not given here) is lower in “Solubility: concentration … of hydrochloride” value: 10% for the first, 7.5% for the second.

In the case of CCC1NC(=O)C(NC(=O)c2ncccc2O)C(C)OC(=O)C(c2ccccc2)NC(=O)C2CC(=O)C(CSC3CCN(C)CC3)CN2C(=O)C(Cc2ccc(N(C)C)cc2)N(C)C(=O)C2CCCN2C1=O (centres unmarked) [product AF, 5δ-(1-methyl-4-piperidyl)thiomethylpristinamycin IA] ({Picolinoyl(3-OH)}-T[Abu]P[ξNMePhe(4-NMe2)][X2][Phg]; ester 1-C; configuration not given here), the “Solubility: concentration … of hydrochloride” value was 5%.
